Legend:
in vitro = settings: rat
Excerpt: (§1) Data is expressed as a percentage of the number of viable cells (as determined by LDH activity) in the non-hydrolysed gelatin sandwich at each time point. Native Gel/cell slurry (-{acute over (◯)}-) wherein hepatocytes suspended in a gel of non-hydrolysed gelatin; Pre-adhered hepatocytes with Native gel blanket (-▪-) wherein hepatocytes allowed to adhere to the substratum before being blanketed by gel of non-hydrolysed gelatin; hydrolysed gelatin slurry (-x-) wherein hepatocytes suspended in a gel of non-hydrolysed gelatin hydrolysed at 95° C.; 75 bloom slurry (--) wherein hepatocytes suspended in a gel composed of 75 bloom gelatin (commercially available from Sigma); Pre-attached hepatocytes with Hydrolysed gel blanket (-◯-) wherein hepatocytes allowed to adhere to the substratum before being blanketed by a gel of hydrolysed gelatin.

Excerpt for hepatocytes: as §1

In the case of `OCC(O)CO` [glycerol], the viability at 7 days, 0.5 M (in vitro) is reported as 10% and the “cytotoxicity to hepatocytes during preservation” value (hepatocytes) is reported as “cytotoxic”.
